Marks after values point to notes of the source that are not given here. No end group written: not given here.
Tests used:
HBsAg = settings: at 400 μg/ml, day 8, 2.2.15 cell supernatant
Experimental: (§1) a. Inhibitory effect of CMS017 on HBsAg and HBeAg at maximum non-toxic concentration in vitro 2.2.15 cells, growing at logarithmic phase, were harvested and re-suspended in MEM culture medium (containing 10% calf serum, […], and 100 U/ml streptomycin) as a 2×10^6/ml cell suspension. The suspension was inoculated into a 24-well cell culture plate with 1.5 ml per well, and incubated at 37° C., 5% CO2 for 48 hours. The test substance CMS017 was diluted and added to the 2.2.15 cultures to final concentrations of 0, 50, 100, 200, 400, 800 μg/ml, with 3 parallel samples per concentration. The cells were then incubated at 37° C., 5% CO2. The supernatant was refreshed on days 3 and 6. The cytotoxicity of CMS017 on 2.2.15 cell cultures was then observed with MTT staining on day 8, and the maximum non-toxic concentration of CMS017 was determined.
(§2) The preparation and incubation of cell suspensions were repeated as above with the determined maximum non-toxic concentration of CMS017, and with parallel negative and positive controls (lamivudine with the same concentration as CMS017 was used as the positive control). On the 8th day, the titers of HBsAg and HBeAg in the cell culture supernatants were determined by ELISA^[1,2], using conditions described by the kit supplier. The inhibition percentage of each test substance was calculated as shown below. Inhibitory percentage (%)=(blank control−sample)/blank control×100 Cell survival percentage (%)=sample (A595−A650)/blank control (A595−A650)×100

HBeAg = settings: at 400 μg/ml, day 8, 2.2.15 cell supernatant
Experimental: as §1, §2

[1] = Cytotoxicity (cell survival, TC50) in the HBV-DNA experiment; type: cell-based; settings: human, HepG2 2.2.15 cells, day 8, concentration at which cell survival is 50% of control
Experimental: (§3) Cell suspensions were prepared and incubated as described in Method 1 above. […] The culture media, with added test substance, were exchanged on days 3 and 6. On the 8th day, the supernatants of the cell cultures were harvested for the determination of HBV-DNA concentrations by fluorescent quantitative PCR^[3,4], using the method described by the kit supplier. The cultured cells were taken for analysis of the cytotoxicity of each test substance. The inhibitory percentage of the drug was calculated in the following manner: Inhibitory percentage (%)=(blank control−sample)/blank control×100 Cell survival percentage (%)=sample (A595−A650)/blank control (A595−A650)×100
(§4) TC50 was defined as the test substance concentration at which the percentage of surviving cells in the test group is 50% of that of the control group. IC50 was the test substance concentration at which the percentage of reduction of HBV-DNA concentration is 50% compared to control. These were determined by plotting the corresponding percentage against the test substance concentrations. The selection index (SI) was calculated as TC50/IC50. The bigger the value of SI, the higher the inhibition activity of test substance is and the less cytotoxic it is.

hepG 2 2.2.15 cell line = assay: Cytotoxicity of CMS017 on 2.2.15 cell cultures, MTT staining (maximum non-toxic concentration); type: cell-based; settings: 2.2.15 cells, MTT staining on day 8
Experimental: as §1

HBV-DNA = assay: Inhibition of supernatant HBV-DNA in 2.2.15 cells (fluorescent quantitative PCR); settings: for IC50 (HBV-DNA): 2.2.15 cell supernatant; for IC50 (HBV-DNA) / inhibitory percentage for supernatant HBV-DNA: day 8; for inhibitory percentage for supernatant HBV-DNA: at the concentration of 160 μg/ml
Experimental: as §3, §4

[2] = tested on: T lymphocyte transformation; assay: ConA-induced T lymphocyte transformation of spleen cells from treated mice (MTT); type: in vivo, BALB/c mice; settings: for stimulation index (X ± SD): BALB/c mice, spleen cells + ConA
Experimental: The day after the last test substance administration, the mice were sacrificed by cervical dislocation. The spleen was isolated aseptically and manually dispersed in cold D-Hank's solution using an injection needle. The dispersed cell suspension was further sieved through a 100 gauge 150 μm diameter stainless steel sieve. After centrifugation at 200 g for 10 minutes, the supernatant was discarded. […] The suspended cells were collected by centrifugation at 150 g for 10 minutes. […] The cells were then pelleted by centrifugation at 150 g for 10 minutes. […] The incubation was continued for 4 hours.

| Compound | Inhibition ratio of HBsAg (HBsAg) | Inhibition ratio of HBeAg (HBeAg) | CC50 at 192 h [1] | maximum non-toxic concentration (hepG 2 2.2.15 cell line) | IC50 (HBV-DNA) (HBV-DNA) | SI (selection index, TC50/IC50) (HBV-DNA) | inhibitory percentage for supernatant HBV-DNA (HBV-DNA) | stimulation index (X ± SD) ([2]; 50 μg/kg/day i.p. for 28 days) | effect on T lymphocyte transformation (in words) ([2]; 50 μg/kg/day, compared with the saline control group (P<0.05)) | stimulation index (X ± SD) ([2]; 200 μg/kg/day i.p. for 28 days) |
| --- | --- | --- | --- | --- | --- | --- | --- | --- | --- | --- |
| Nc1ccn([C@@H]2CS[C@H](CO)O2)c(=O)n1 [Lamivudine, lamivudine, reference compound] | 29.6%* | 35.4%* | – | – | – | – | – | – | – | – |
| IVTNTT [CMS017, L-Isoleucyl-L-valyl-L-threonyl-L-asparaginyl-L-threonyl-L-threonine] | 68.6%* | 62.2%* | 1330 µg/mL | 400 µg/mL | 2.3 µg/mL | 577.7 | 90.8% | 2.82 ± 0.41 | enhance T lymphocyte transformation | 2.65 ± 0.51 |
| vidarabine monophosphate [Ara-AMP, reference compound] | – | – | – | – | 11.4 µg/mL | 5.6 | 89.1%* | – | – | – |

Reference: patent US7396817B2, “Biologically active peptides comprising Isoleucyl-valyl-threonyl-asparaginyl-threonyl-threonine (IVTNTT)” (CMS Peptides Patent Holding Company Limited, priority 2003, dated 2008)
